Assay results: patent US10647664B2, “Substituted hydroxamic acid compounds” (Duke University, priority 2013, dated 2020)
Converted amounts (≈) assume the structure as drawn.

Legend:
[1] = test system: wild-type E. coli (W3110); assay: Minimum inhibitory concentration (MIC), E. coli W3110; format: cell-based; settings: LB medium, 5% DMSO, 22 hours at 37° C., MTT; for MIC: Escherichia coli, 22 h
[2] = test system: P. aeruginosa PA01; assay: MIC, P. aeruginosa PA01; format: cell-based; settings: Pseudomonas aeruginosa
[3] = test system: V. cholera (P4); assay: MIC, V. cholera (P4); format: cell-based; design: unit not given beside the values
Protocol: (§1) MICs are determined according to the NCCLS protocol using 96-well plates. Briefly, diluted bacterial cells (10^6 cells/mL) are added into each well of the 96-well plates containing LB medium with 5% DMSO and various concentrations of the compound of disclosure. After incubation of the plates for 22 hours at 37° C., [4,5-dimethylthiazol-2-yl]-2,5-diphenyltetrazolium bromide solution (MTT) is added (final concentration, 0.2 mg/mL) and incubated at 37° C. for another 3 hrs. MIC is determined as the lowest concentration of an antibiotic that prevented color change (yellow to purple).
(§2) Additional results of minimum inhibitory concentrations (MICs) using V. cholera (P4), S. typhimurium (LT2), and K. pneumonia (43816) are shown in Table 2

[4] = test system: S. typhimurium (LT2); assay: MIC, S. typhimurium (LT2); format: cell-based
Protocol: as §1, §2

[5] = test system: K. pneumonia (43816); assay: MIC, K. pneumonia (43816); format: cell-based
Protocol: as §1, §2

[6] = test system: F. novicida U112 (FNU112); assay: microbe, parasite or virus in culture; format: cell-based; settings: Francisella tularensis, read-out: MIC FNU112, F. novicida U112
[7] = test system: N. gonorrhoeae 35/02 (drug-resistant strain); settings: N. gonorrhoeae strain 35/02; description of the strain's resistance; cited from earlier work

Compound	MIC [1] [µg/mL]	MIC ([2]; PA01) [µg/mL]	MIC [6] [µg/mL]	further results
C[C@@H](O)[C@](C)(NC(=O)c1ccc(C#CC#Cc2ccc(N)cc2)cc1)C(=O)NO [Example 1, 4-((4-aminophenyl)buta-1,3-diynyl)-N-(3-hydroxy-1-(hydroxyamino)-2-methyl-1-oxobutan-2-yl)benzamide]	0.18 (≈ 0.46 µM)	15 (≈ 38.3 µM)	–	MIC E. coli W3110 [1]: 0.13 µg/mL (≈ 0.332 µM); MIC ([2]; PA01, P. aeruginosa PA01): 6.25 µg/mL (≈ 16 µM); MIC V. cholera (P4) [3]: 0.03; MIC S. typhimurium (LT2) [4]: 0.144; MIC K. pneumonia (43816) [5]: 0.6
CC(NC(=O)c1ccc(C#Cc2ccc(CN3CCOCC3)cc2)cc1)(C(=O)NO)C(C)(O)C(F)F (centres unmarked) [Example 2, N-(4,4-difluoro-3-hydroxy-1-(hydroxyamino)-2,3-dimethyl-1-oxobutan-2-yl)-4-((4-(morpholinomethyl)phenyl)ethynyl)benzamide]	6.25 (≈ 12.5 µM)	–	50 (≈ 99.7 µM)	–
C[C@@](O)(C(F)F)[C@H](NCCCc1ccc(C#Cc2ccccc2)cc1)C(=O)NO [Example 3, (2S,3S)-4,4-difluoro-N,3-dihydroxy-3-methyl-2-((3-(4-(phenylethynyl)phenyl)propyl)amino)butanamide]	1.6 (≈ 3.98 µM)	–	–	–
C[C@@](O)(C(F)F)[C@H](NC(=O)c1ccc(C#Cc2ccc(CN3CCNCC3)cc2)cc1)C(=O)NO [Example 19]	> 1	> 5	2.5 (≈ 5.14 µM)	–
C[C@@](O)(C(F)F)[C@H](NC(=O)c1ccc(C#CC#CCN2CCOCC2)cc1)C(=O)NO [Example 21, N-((2S,3S)-4,4-difluoro-3-hydroxy-1-(hydroxyamino)-3-methyl-1-oxobutan-2-yl)-4-(5-morpholinopenta-1,3-diyn-1-yl)benzamide]	0.46 (≈ 1.06 µM)	1.56 (≈ 3.58 µM)	> 5	–
CC(C#CC#Cc1ccc(C(=O)N[C@H](C(=O)NO)[C@](C)(O)C(F)F)cc1)N1CCOCC1 (stereo partly drawn) [Example 22, N-((2S,3S)-4,4-difluoro-3-hydroxy-1-(hydroxyamino)-3-methyl-1-oxobutan-2-yl)-4-(5-morpholinohexa-1,3-diyn-1-yl)benzamide]	> 1	5 (≈ 11.1 µM)	> 5	–
CC(CCn1ccc(C#Cc2ccccc2)cc1=O)(C(=O)NO)S(C)(=O)=O (centres unmarked) [Example 30, N-hydroxy-2-methyl-2-(methylsulfonyl)-4-(2-oxo-4-(phenylethynyl)pyridin-1 (2H)-yl)butanamide]	< 0.78	< 0.78	–	–
CO/N=C(\C(=O)N[C@@H]1C(=O)N2C(C(=O)O)=C(CSc3nc(=O)c(=O)[nH]n3C)CS[C@H]12)c1csc(N)n1 [ceftriaxone]	–	–	–	MIC [7]: 0.12 µg/mL (≈ 0.216 µM)
penicillin	–	–	–	MIC [7]: 6 µg/mL
